# Measurements taken from publication PMC12736255, “Reinvestigating Pyrrol-2-One-Based Compounds: From Antimicrobial Agents to Promising Antitumor Candidates” (Pharmaceuticals, 2025).
# Marks after values point to notes of the source that are not given here.
# Assays:
# Test in all cases: NCI-60 single-dose screen
# [1] = tested on: EKVX; assay type: cell-based, human; conditions: 10^–5 M; for inhibition at 10 µM: Homo sapiens, read-out: GI (%)
# Source text: (§1) In the next step, all synthesized compounds were electronically submitted and accepted for testing to the National Cancer Institute (NCI) platform, for the single dose (10^−5 M) screening against a panel of 60 human tumor cell lines, representing leukemia, melanoma, and cancers of the lung, colon, central nervous system, ovary, kidney, prostate, and breast. The results are summarized in Table 2, with the best values highlighted in red (Figures S1–S14).
# [2] = tested on: NCI-H226; assay type: cell-based, human; conditions: NCI-H226, 10^–5 M; for inhibition at 10 µM: Homo sapiens, read-out: GI (%)
# Source text: as §1
# [3] = tested on: 786-0; assay type: cell-based; conditions: Homo sapiens; 786-0, 10^–5 M; read-out: GI (%)
# Source text: as §1
# [4] = tested on: A498; assay type: cell-based; conditions: Homo sapiens; A498, 10^–5 M; read-out: GI (%)
# Source text: as §1
# [5] = tested on: A549/ATCC; assay type: cell-based; conditions: Homo sapiens, 10^–5 M, read-out: GI (%)
# Source text: as §1
# [6] = tested on: CAKI-1; assay type: cell-based; conditions: Homo sapiens; CAKI-1, 10^–5 M; read-out: GI (%)
# Source text: as §1
# [7] = tested on: CCRF-CEM; assay type: cell-based; conditions: Homo sapiens, 10^–5 M, read-out: GI (%)
# Source text: as §1
# [8] = tested on: COLO205; assay type: cell-based; conditions: Homo sapiens, COLO 205; COLO205, 10^–5 M; read-out: GI (%)
# Source text: as §1
# [9] = tested on: HCC-2998; assay type: cell-based; conditions: Homo sapiens; HCC-2998, 10^–5 M; read-out: GI (%)
# Source text: as §1
# [10] = tested on: HCT-116; assay type: cell-based; conditions: Homo sapiens; HCT-116, 10^–5 M; read-out: GI (%)
# Source text: as §1
# [11] = tested on: HCT-15; assay type: cell-based; conditions: Homo sapiens; HCT-15, 10^–5 M; read-out: GI (%)
# Source text: as §1
# [12] = tested on: HL-60(TB); assay type: cell-based; conditions: Homo sapiens, 10^–5 M, read-out: GI (%)
# Source text: as §1
# [13] = tested on: HOP-92; assay type: cell-based; conditions: Homo sapiens; HOP-92, 10^–5 M; read-out: GI (%)
# Source text: as §1
# [14] = tested on: IGROV1; assay type: cell-based; conditions: Homo sapiens, IGROV-1; IGROV1, 10^–5 M; read-out: GI (%)
# Source text: as §1
# [15] = tested on: K-562; assay type: cell-based; conditions: Homo sapiens, K562; K-562, 10^–5 M; read-out: GI (%)
# Source text: as §1
# [16] = tested on: KM12; assay type: cell-based; conditions: Homo sapiens; KM12, 10^–5 M; read-out: GI (%)
# Source text: as §1
# [17] = tested on: LOX IMVI; assay type: cell-based; conditions: Homo sapiens, 10^–5 M, read-out: GI (%)
# Source text: as §1
# [18] = tested on: MCF7; assay type: cell-based; conditions: Homo sapiens; MCF7, 10^–5 M; read-out: GI (%)
# Source text: as §1
# [19] = tested on: MDA-MB-231/ATCC; assay type: cell-based; conditions: Homo sapiens, 10^–5 M, read-out: GI (%)
# Source text: as §1
# [20] = tested on: NCI-H23; assay type: cell-based; conditions: Homo sapiens; NCI-H23, 10^–5 M; read-out: GI (%)
# Source text: as §1
# [21] = tested on: NCI-H322M; assay type: cell-based; conditions: Homo sapiens, 10^–5 M, read-out: GI (%)
# Source text: as §1
# [22] = tested on: NCI/ADR-RES; assay type: cell-based; conditions: Homo sapiens, 10^–5 M, read-out: GI (%)
# Source text: as §1
# [23] = tested on: OVCAR-3; assay type: cell-based; conditions: Homo sapiens; OVCAR-3, 10^–5 M; read-out: GI (%)
# Source text: as §1
# [24] = tested on: OVCAR-5; assay type: cell-based; conditions: Homo sapiens; OVCAR-5, 10^–5 M; read-out: GI (%)
# Source text: as §1
# [25] = tested on: OVCAR-8; assay type: cell-based; conditions: Homo sapiens; OVCAR-8, 10^–5 M; read-out: GI (%)
# Source text: as §1
# [26] = tested on: PC-3; assay type: cell-based; conditions: Homo sapiens, PC-3, PC-3, 10^–5 M; read-out: GI (%)
# Source text: as §1
# [27] = tested on: SF-539; assay type: cell-based; conditions: Homo sapiens; SF-539, 10^–5 M; read-out: GI (%)
# Source text: as §1
# [28] = tested on: SK-MEL-28; assay type: cell-based; conditions: Homo sapiens; SK-MEL-28, 10^–5 M; read-out: GI (%)
# Source text: as §1
# [29] = tested on: SK-MEL-2; assay type: cell-based; conditions: Homo sapiens; SK-MEL-2, 10^–5 M; read-out: GI (%)
# Source text: as §1
# [30] = tested on: SK-MEL-5; assay type: cell-based; conditions: Homo sapiens; SK-MEL-5, 10^–5 M; read-out: GI (%)
# Source text: as §1
# [31] = tested on: SK-OV-3; assay type: cell-based; conditions: Homo sapiens; SK-OV-3, 10^–5 M; read-out: GI (%)
# Source text: as §1
# [32] = tested on: SN12C; assay type: cell-based; conditions: Homo sapiens, 10^–5 M, read-out: GI (%)
# Source text: as §1
# [33] = tested on: SNB-19; assay type: cell-based; conditions: Homo sapiens; SNB-19, 10^–5 M; read-out: GI (%)
# Source text: as §1
# [34] = tested on: SNB-75; assay type: cell-based; conditions: Homo sapiens; SNB-75, 10^–5 M; read-out: GI (%)
# Source text: as §1
# [35] = tested on: SW-620; assay type: cell-based; conditions: Homo sapiens; SW-620, 10^–5 M; read-out: GI (%)
# Source text: as §1
# [36] = tested on: UACC-257; assay type: cell-based; conditions: Homo sapiens; UACC-257, 10^–5 M; read-out: GI (%)
# Source text: as §1
# [37] = tested on: UACC-62; assay type: cell-based; conditions: Homo sapiens; UACC-62, 10^–5 M; read-out: GI (%)
# Source text: as §1
smiles,measurement,setting,value
O=C1C(Nc2ccc(I)cc2)=CC(c2ccc(C(F)(F)F)cc2)N1c1ccc(I)cc1 (centres unmarked) [3e],GI (%),[1],100 ^d %
same,inhibition at 10 µM,[1],100%
same,inhibition at 10 µM,[2],100%
same,GI (%),[2],100 ^e %
same,inhibition at 10 µM,[3],76%
same,inhibition at 10 µM,[4],100%
same,inhibition at 10 µM,[5],30%
same,inhibition at 10 µM,[6],91%
same,inhibition at 10 µM,[7],100%
same,inhibition at 10 µM,[8],61%
same,inhibition at 10 µM,[9],0%
same,inhibition at 10 µM,[10],58%
same,inhibition at 10 µM,[11],12%
same,inhibition at 10 µM,[12],51%
same,inhibition at 10 µM,[13],62%
same,inhibition at 10 µM,[14],12%
same,inhibition at 10 µM,[15],16%
same,inhibition at 10 µM,[16],35%
same,inhibition at 10 µM,[17],7%
same,inhibition at 10 µM,[18],44%
same,inhibition at 10 µM,[19],62%
same,inhibition at 10 µM,[20],11%
same,inhibition at 10 µM,[21],97%
same,inhibition at 10 µM,[22],35%
same,inhibition at 10 µM,[23],72%
same,inhibition at 10 µM,[24],18%
same,inhibition at 10 µM,[25],43%
same,inhibition at 10 µM,[26],26%
same,inhibition at 10 µM,[27],37%
same,inhibition at 10 µM,[28],31%
same,inhibition at 10 µM,[29],100%
same,inhibition at 10 µM,[30],0%
same,inhibition at 10 µM,[31],50%
same,inhibition at 10 µM,[32],60%
same,inhibition at 10 µM,[33],71%
same,inhibition at 10 µM,[34],100%
same,inhibition at 10 µM,[35],47%
same,inhibition at 10 µM,[36],100%
same,inhibition at 10 µM,[37],12%
O=C1C(Nc2ccc(I)cc2)=CC(c2cc(C(F)(F)F)cc(C(F)(F)F)c2)N1c1ccc(I)cc1 (centres unmarked) [3f],inhibition at 10 µM,[1],35%
same,inhibition at 10 µM,[2],81%
same,inhibition at 10 µM,[3],29%
same,inhibition at 10 µM,[4],90%
same,inhibition at 10 µM,[5],16%
same,inhibition at 10 µM,[6],32%
same,inhibition at 10 µM,[7],100%
same,inhibition at 10 µM,[8],59%
same,inhibition at 10 µM,[9],2%
same,inhibition at 10 µM,[10],43%
same,inhibition at 10 µM,[11],17%
same,inhibition at 10 µM,[12],59%
same,inhibition at 10 µM,[13],19%
same,inhibition at 10 µM,[14],0%
same,inhibition at 10 µM,[15],26%
same,inhibition at 10 µM,[16],13%
same,inhibition at 10 µM,[17],17%
same,inhibition at 10 µM,[18],46%
same,inhibition at 10 µM,[19],42%
same,inhibition at 10 µM,[20],12%
same,inhibition at 10 µM,[21],10%
same,inhibition at 10 µM,[22],7%
same,inhibition at 10 µM,[23],35%
same,inhibition at 10 µM,[24],9%
same,inhibition at 10 µM,[25],26%
same,inhibition at 10 µM,[26],25%
same,inhibition at 10 µM,[27],17%
same,inhibition at 10 µM,[28],9%
same,inhibition at 10 µM,[29],35%
same,inhibition at 10 µM,[30],12%
same,inhibition at 10 µM,[31],10%
same,inhibition at 10 µM,[32],61%
same,inhibition at 10 µM,[33],19%
same,inhibition at 10 µM,[34],100%
same,inhibition at 10 µM,[35],20%
same,inhibition at 10 µM,[36],0%
same,inhibition at 10 µM,[37],0%
O=C1C(Nc2ccc(I)cc2)=CC(c2ccc(O)c(O)c2)N1c1ccc(I)cc1 (centres unmarked) [3h],inhibition at 10 µM,[1],22%
same,inhibition at 10 µM,[2],35%
same,inhibition at 10 µM,[3],52%
same,inhibition at 10 µM,[4],61%
same,inhibition at 10 µM,[5],73%
same,inhibition at 10 µM,[6],44%
same,inhibition at 10 µM,[7],100%
same,inhibition at 10 µM,[8],98%
same,inhibition at 10 µM,[9],98%
same,inhibition at 10 µM,[10],96%
same,inhibition at 10 µM,[11],84%
same,inhibition at 10 µM,[12],100%
same,inhibition at 10 µM,[13],66%
same,inhibition at 10 µM,[14],26%
same,inhibition at 10 µM,[15],89%
same,inhibition at 10 µM,[16],100%
same,inhibition at 10 µM,[17],57%
same,inhibition at 10 µM,[18],91%
same,inhibition at 10 µM,[19],42%
same,inhibition at 10 µM,[20],73%
same,inhibition at 10 µM,[21],34%
same,inhibition at 10 µM,[22],35%
same,inhibition at 10 µM,[23],96%
same,inhibition at 10 µM,[24],22%
same,inhibition at 10 µM,[25],37%
same,inhibition at 10 µM,[26],> 70%
same,inhibition at 10 µM,[27],72%
same,inhibition at 10 µM,[28],75%
same,inhibition at 10 µM,[29],100%
same,inhibition at 10 µM,[30],94%
same,inhibition at 10 µM,[31],64%
same,inhibition at 10 µM,[32],100%
same,inhibition at 10 µM,[33],69%
same,inhibition at 10 µM,[34],86%
same,inhibition at 10 µM,[35],100%
same,inhibition at 10 µM,[36],68%
same,inhibition at 10 µM,[37],62%
